According to PubChem BioAssay (NCI):
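Growth conditions: 96-well plates. Treatment: test compound, 48 hours, 5 concentrations. Analysis: linear interpolation between bracketing concentrations; unreached endpoints set to highest concentration. The concentration for full growth arrest is given as TGI.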

Columns and labels:
Assay in all cases: NCI-60 cell line screen, 48 h
[1] = system: COLO 205 colon
[2] = system: DMS 114 small cell lung
[3] = system: DMS 273 small cell lung
[4] = system: KM12 colon
[5] = system: NCI-H226 lung
[6] = system: OVCAR-4 ovarian
[7] = system: RXF 393 renal
[8] = system: SK-MEL-2 melanoma
[9] = system: SN12C renal
[10] = system: SNB-78 CNS
[11] = system: HOP-62 NSCLC
[12] = system: KM20L2 colon
[13] = system: OVCAR-3 ovarian
[14] = system: OVCAR-5 ovarian
[15] = system: UACC-62 melanoma
[16] = system: A498 renal
[17] = system: MCF7 breast
[18] = system: MDA-MB-435
[19] = system: NCI/ADR-RES ovarian
[20] = system: PC-3 prostate

SMILES | TGI [1] | TGI [2] | TGI [3] | TGI [4] | TGI [5] | TGI [6] | TGI [7] | TGI [8] | TGI [9] | TGI [10] | TGI [11] | TGI [12] | TGI [13] | TGI [14] | TGI [15] | TGI [16] | TGI [17] | TGI [18] | TGI [19] | TGI [20]
Cn1c(=O)c(C#N)c(O)c2cc3ccccc3nc21 | > 100 µM | > 100 µM | > 100 µM | > 100 µM | > 100 µM | > 100 µM | > 100 µM | > 100 µM | > 100 µM | > 100 µM |  |  |  |  |  |  |  |  |  | 
Cc1c(N(Cc2ccccc2)Cc2ccccc2)nc(S(C)(=O)=O)nc1S(C)(=O)=O |  | 3.24 µM | 4.29 µM |  | 25.8 µM |  | 3.1 µM | 30.6 µM | 4.28 µM | 4.81 µM | 28 µM | 3.28 µM | 3.36 µM | 19.3 µM | 3.16 µM |  |  |  |  | 
COc1cc(O)c2c(=O)c(O)c(-c3ccc(O)c(O)c3)oc2c1 | 32.5 µM |  |  |  |  | 37.6 µM |  |  |  |  | 63.2 µM |  | 21.8 µM | 47.8 µM | > 100 µM | 14.9 µM | 60.7 µM | 85.5 µM | 32.9 µM | > 100 µM
